# Assay results: PubChem BioAssay (NCI)
#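 Following 48 hours of exposure in 96-well plates, responses at five concentrations were used to interpolate endpoints linearly. GI50: concentration for 50% inhibition of growth. The concentration for full growth arrest is given as TGI.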
# Experiments:
# Assay in all cases: inhibition of tumour cell growth, NCI panel, 48 h
# BT-549 breast = test system: BT-549 breast
# HS 578T breast = test system: HS 578T breast
# MDA-MB-435 = test system: MDA-MB-435
# MOLT-4 leukemia = test system: MOLT-4 leukemia
# NCI-H226 lung = test system: NCI-H226 lung
# RPMI-8226 leukemia = test system: RPMI-8226 leukemia
# SF-539 CNS = test system: SF-539 CNS
# SW-620 colon = test system: SW-620 colon
# DMS 273 small cell lung = test system: DMS 273 small cell lung
# KM20L2 colon = test system: KM20L2 colon
SMILES,GI50 (BT-549 breast),TGI (BT-549 breast),GI50 (HS 578T breast),TGI (HS 578T breast),GI50 (MDA-MB-435),TGI (MDA-MB-435),GI50 (MOLT-4 leukemia),TGI (MOLT-4 leukemia),GI50 (NCI-H226 lung),TGI (NCI-H226 lung),GI50 (RPMI-8226 leukemia),TGI (RPMI-8226 leukemia),GI50 (SF-539 CNS),TGI (SF-539 CNS),TGI (SW-620 colon),GI50 (SW-620 colon),TGI (DMS 273 small cell lung),TGI (KM20L2 colon),GI50 (KM20L2 colon)
O=C1c2ccccc2-c2c1c1ccc([N+](=O)[O-])cc1c(=O)n2CCCn1ccnc1,0.0359 µM,0.96 µM,0.605 µM,10.2 µM,1.55 µM,5.98 µM,2.12 µM,4.64 µM,0.0183 µM,0.0637 µM,0.0153 µM,0.0653 µM,0.0149 µM,0.0838 µM,0.529 µM,,,,
Cc1ccc2c(c1)-c1oc(=O)c(-c3cc4ccccc4oc3=O)cc1C(O)O2 (stereo not given),12.7 µM,25.5 µM,24 µM,47.7 µM,19.2 µM,45.6 µM,27.8 µM,74.4 µM,18.9 µM,40.5 µM,35.1 µM,> 100 µM,13.3 µM,26 µM,33.5 µM,18.9 µM,,,
CCCCCN(CCCCC)C(=O)[C@H](CCC(=O)OCc1ccccc1)NC(=O)c1cc2ccccc2[nH]1,,,,,,,,> 100 µM,,> 100 µM,,7.74 µM,,> 100 µM,> 100 µM,,> 100 µM,> 100 µM,
CCOc1ncnc2ccc(Cl)c(I)c12,,,,,,,,,,,,> 100 µM,,,> 100 µM,,> 100 µM,> 100 µM,
CN1CCN(Cc2ccc(NC(=O)c3cccc(C#Cc4c(N)ncc5ccc(F)cc45)c3)cc2C(F)(F)F)CC1,2.11 µM,6.66 µM,0.627 µM,1.97 µM,0.763 µM,1.47 µM,0.681 µM,1.63 µM,0.265 µM,2.7 µM,1.03 µM,2.59 µM,0.548 µM,1.19 µM,1.39 µM,0.645 µM,,,
O=S(=O)(NCCNc1cc(-c2cn(-c3ccccc3)nc2-c2cccc(O)c2)ccn1)c1ccc(Br)cc1,2.52 µM,6.87 µM,2.35 µM,7.71 µM,1.79 µM,3.65 µM,2.21 µM,5.98 µM,3.15 µM,15 µM,2.21 µM,5.73 µM,1.81 µM,4.24 µM,9.68 µM,3.04 µM,,,
Nc1nc(CC2(O)CCCCC2)cc(-c2ccccc2)n1,,,,,,,,53.9 µM,,> 61.9 µM,,78.6 µM,,> 100 µM,65 µM,,> 66 µM,> 53.7 µM,
N/C(=N\N=C\c1ccc(O)c(O)c1)NO,,,,,,,,> 100 µM,,> 100 µM,,> 100 µM,,> 100 µM,> 100 µM,,> 100 µM,> 100 µM,
O=C(O)CNC(=O)C1NC(C(F)(F)F)(C(F)(F)F)OC1(C(F)(F)F)C(F)(F)F (stereo not given),,> 100 µM,,> 100 µM,,> 100 µM,,> 100 µM,,> 100 µM,,> 100 µM,,> 100 µM,> 100 µM,,,,
CC(C)=CCC/C(C)=C/CC/C(C)=C/C1CCC(=O)C1(C)C (stereo not given),,,,,,,,41 µM,,29.4 µM,,42.4 µM,,38.9 µM,,,,31.9 µM,
CC1(C)Oc2ccccc2[N+]([O-])=C1c1ccccc1,,,,,,,,> 100 µM,,,,> 100 µM,,> 100 µM,> 100 µM,,> 100 µM,> 100 µM,
CN[C@H]1CC[C@]23C[C@]24CC[C@]2(C)[C@@H]([C@H](C)N(C)C)CC[C@@]2(C)[C@@H]4CC[C@H]3C1(C)C,,31.9 µM,,48 µM,,29.8 µM,,60.1 µM,,34.9 µM,,31.3 µM,,26.7 µM,32.5 µM,,,,
COc1c(Cl)[c]([Hg][O]C(C)=O)c(NCC(C)=O)c(OC)[c]1[Hg][O]C(C)=O,,,,,,,17.1 µM,48.5 µM,18.7 µM,43.1 µM,15 µM,38.8 µM,2.92 µM,13.3 µM,62.4 µM,19.6 µM,,> 100 µM,28.3 µM
COC1C(O)CC(OC2CC(OC3CC(O[C@@H]4C(=O)c5c(cc6cc(OC7CC(OC8CC(O)C(O)C(C)O8)C(O)C(C)O7)c(C)c(O)c6c5O)CC4[C@H](OC)[C@@H](O)C(C)=O)OC(C)C3O)OC(C)C2O)OC1C (stereo not given in full),< 0.0292 µM,12.5 µM,0.0307 µM,> 33.3 µM,0.0156 µM,7.07 µM,0.00749 µM,0.34 µM,0.0507 µM,0.181 µM,0.014 µM,> 33.3 µM,0.00902 µM,0.463 µM,> 33.3 µM,0.0125 µM,,,
CCN(CC)c1ccc(/C=N/NC(=O)c2ccccc2Nc2ccnc(C(F)(F)F)c2)c(O)c1,0.529 µM,> 100 µM,1.11 µM,> 51.6 µM,0.428 µM,> 100 µM,0.102 µM,4.2 µM,0.235 µM,2.37 µM,0.0417 µM,0.601 µM,0.248 µM,,> 100 µM,0.407 µM,,,
C=C(C)[C@@H]1CC[C@]2(CN)CC[C@]3(C)[C@H](CC[C@@H]4[C@@]5(C)CCC(N)[C@@](C)(CO)[C@@H]5CC[C@]43C)[C@@H]12 (stereo not given in full),1.66 µM,3.2 µM,1.65 µM,3.65 µM,1.85 µM,3.46 µM,1.7 µM,3.58 µM,1.94 µM,4.09 µM,1.77 µM,3.94 µM,1.79 µM,3.26 µM,3.62 µM,1.8 µM,,,
CCCC(=O)Nc1c(I)cc(I)c(CC(CC)C(=O)O)c1I (stereo not given),> 100 µM,> 100 µM,> 100 µM,> 100 µM,> 100 µM,> 100 µM,> 100 µM,> 100 µM,> 100 µM,> 100 µM,> 100 µM,> 100 µM,> 100 µM,> 100 µM,> 100 µM,> 100 µM,,,
